Experimental data from patent US12116421B2, “Peptide-based Dopa containing adhesive gels” (KING ABDULLAH UNIVERSITY OF SCIENCE AND TECHNOLOGY, priority 2020, dated 2024).
Where a SMILES comes first, the peptide text is derived from it. [ ]: non-standard residue; d: D form. Dopa = N[C@@H](Cc1ccc(O)c(O)c1)C(=O)O; Cha = N[C@@H](CC1CCCCC1)C(=O)O

Columns and labels:
[1] = tested on: mouse myoblast cells (C2C12); assay: Cytocompatibility of peptide nanogels, 3D culture, MTT and live/dead staining; format: cell-based; settings: various concentrations up to the solubility limit of the peptides
[2] = tested on: mouse myoblast cells (C2C12); assay: as above; format: cell-based; settings: for effect on cell growth: C2C12, nanogel 3 mg/mL, compared to 2D culture; for biocompatibility with C2C12 cells: hydrogel scaffold, live/dead staining versus 2D culture
Method: In one embodiment, cytocompatibility of the peptide nanogels was evaluated using mouse myoblast cells (C2C12). After 24 hours of incubation, cell proliferation was tested with DoIIZK, IIZDoK, IIZKDo, IIZ(KDo)2 and IIZ(KDo)3 at a concentration of 3 mg/mL to evaluate biocompatibility. The MTT (3-(4,5-dimethylthiazol-2-yl)-2,5-diphenyltetrazolium bromide) assay was used in order to quantify the number of viable cells. In one embodiment, a standard curve for a known number of cells was also plotted. In one embodiment, the test results were compared to the positive control 2D culture. A positive indication of cytocompatibility would be the survival of the cells following incubation with the peptides. For comparison, peptides DoIIZK, IIZDoK, IIZKDo, IIZ(KDo)2 and IIZ(KDo)3 were tested as part of the study. The cytocompatibilty of all peptides tested was evaluated by quantifying the survival cells by visualising the live/dead cells using calcein AM and Ethidium bromide staining.
Poli-D Lysine (PDL) was used for 2D control. The scalebar in FIG. 35 is 200 μm. Cytocompatibility of all peptides was evaluated by quantifying the survival cells by visualising the live/dead cells using calcein AM and Ethidium homodimer staining. The live cells are stained green by calcein AM, while the dead cells are stained red by Ethidium homodimer.
For mouse myoblast cells (C2C12) culture expansion, C2C12 cells were cultured either in a T175 or T75 culture flask in complete DMEM media (10% FBS and 1% P/S). The cells were placed in a humidified incubator at 37° C., with 95% air and 5% CO2. Then they were subcultured using trypsin at approximately 80% confluence. Fresh culture media was added every 48 h to each well, after removing the previous media.
For 3D culture of mouse myoblast cells in peptide hydrogels and cell viability assay, C2C12 cells were encapsulated in peptide hydrogels in a 96-well plate.^61 Briefly, peptide solutions DopaIIZK, IIZDopaK, IIZKDopa (3 mg/mL) were added to 40 μL/well. Mouse myoblast cells (30,000 cells/well) that were re-suspended in 2×PBS were then, mixed gently with the peptide solutions. The gelation time was 1-3 min for all 5 peptides. Subsequently, the culture medium was added to the wells.
The viability of 3D cultured cells was assessed using the LIVE/DEAD Viability/Cytotoxicity Kit (ThermoFisher®, USA)^11. Calcein acetoxymethyl ester (Calcein-AM) is used to detect viable cells and ethidium homodimer-I (EthD-I) is used to detect dead cells. Briefly, staining with 2 μM of Calcein-AM and 4 μM of EthD-1 is performed after washing with Dulbecco's phosphate-buffered saline (D-PBS). After 30 minutes incubation, the staining solution was discarded, and 1×D-PBS was added to each well before imaging. Stained cells were imaged with an inverted confocal microscope (Zeiss® LSM 710 Inverted Confocal Microscope, Germany) or ZEISS® fluorescent microscope.

[3] = AFM force spectroscopy adhesion measurement in liquid; format: physicochemical
Method: In one embodiment, the peptides were dissolved in the proper solution at a concentration of 10 mg/mL. The peptide solutions were spotted on a freshly cleaved mica sheet and the measurement was performed in liquid.
In one embodiment, the adhesion properties of the Dopa peptides are influenced by the construct lysine-Dopa and by the position of the catechol moiety in the peptide sequence, as indicated by the AFM force spectroscopy results in liquid. In a typical force spectroscopy curve the probe is several times approached to the surface and retracted and for every cycle of retraction the maximum force of adhesion is recorded. The incorporation of a catechol moiety near a lysine would enhance adhesion to negatively charged surfaces. FIG. 28 illustrates the effect of lysine on adhesion to negatively charged surfaces. Therefore, probes and substrates that were manifesting negative charges on their surfaces, such as the silicon probe and the freshly cleaved mica substrate, are used in the AFM spectroscopy. The setup of probe and substrate is illustrated in FIG. 29.
The peptides dissolved in the proper solution at 13 mM concentration each, were spotted on a freshly cleaved mica sheet and the measurement was performed in liquid. Several force curves were recorded for different buffers. […] In FIG. 30, the inset image represents the maximum extension of each peptide dissolved in water, when manually pulled between two glass slides. Also in FIG. 30, the approach part of the curve contains the important information defined as “jump to contact”, while the retract part of the F-D curve contains the adhesion force value. […] Two controls were also introduced: namely the original peptide IIZK, and an alternative peptide IIFK. To better understand the influence of Dopa on the adhesion properties of the peptide, the original short peptide IIZK would make a perfect negative control. We also introduced as a control the IIFK peptide in order to understand the effect of IIZK itself on adhesion. In FIG. 32, statistical significance expressed as p<0.01.
AFM topography measurements were performed on a Dimension Icon SPM (Bruker®). The samples were prepared as follows: peptides were dissolved at 13 mM concentration in MilliQ® water; after 30 minutes, 20 μl of these solutions were dropped on freshly cleaved mica sheets and immediately dried with an N2 stream. Measurements were immediately performed in tapping mode in air by the use of an AFM probe AC_240TS_R3 (Olympus®) with nominal free oscillation at roughly 70 kHz and a nominal spring constant of 2 N/m. The probe was calibrated by contact-free method.^54 Free oscillation amplitude was set at 200 mV with a 5% damping during tapping mode measurement. AFM adhesion measurements were performed on a JPK Nanowizard™ III mounted on Olympus® IX-81 inverted optical microscope. A mica sheet was glued one day before the experiment with double component epoxy glue to a glass slide and enclosed in a plastic o-ring provided by the JPK company for liquid measurements. Each peptide was dissolved in MilliQ® water at a concentration of 13 mM and mixed gently. Starting with the measurement in MilliQ® water, 50 μL of the solution were dropped on the freshly cleaved mica sheet within 5 minutes from the preparation of the solution and let equilibrate for 10 minutes. After, the excess solution was removed by pipetting and discarded. Then 1 mL of MilliQ® water was added gently from the side and after 5 minutes, the sample was rinsed 3 times by additional 1 mL MilliQ® water. Finally, the sample was measured by AFM force spectroscopy (Quantitative imaging mode) with additional 1 mL MilliQ® water. The MilliQ® water was exchanged after the measurement alternatively with a water solution containing 137 mM NaCl or 10 mM Phosphate ions (a combination of Na2HPO4·7H2O and NaH2PO4·H2O to reach pH 7.4). After performing the force spectroscopy map in these two different solutions, eventually, the liquid was exchanged with 1×PBS pH 7.4. […]

| increase of adhesion force by addition of NaCl ([3]; NaCl versus MilliQ water) [%] | Compound | cell viability / toxicity [1] | effect on cell growth [2] | metabolic activity of cells versus 2D cultures ([2]; cells cultured in nanogels, 2D = cells in absence of peptides) | time cells stay metabolically active in nanogel ([2]; cells grown in nanogels) | biocompatibility with C2C12 cells [2] | Force of adhesion (Geometric Mean) ([3]; 10 mM PO4, peptide 13 mM) [PN] | Force of adhesion (Geometric Mean) ([3]; 137 mM NaCl, peptide 13 mM) [PN] | Force of adhesion (Geometric Mean) ([3]; 1×PBS, peptide 13 mM) [PN] | Force of adhesion (Geometric Mean) ([3]; MilliQ water, peptide 13 mM) [PN] | reduction of adhesion values by addition of both NaCl and PO4 ([3]; NaCl and PO4 versus MilliQ water) |
| --- | --- | --- | --- | --- | --- | --- | --- | --- | --- | --- | --- |
|  | CC[C@H](C)[C@H](NC(C)=O)C(=O)N[C@H](C(=O)N[C@@H](CC1CCCCC1)C(=O)N[C@@H](CCCCN)C(=O)N[C@@H](Cc1ccc(O)c(O)c1)C(=O)N[C@@H](CCCCN)C(=O)N[C@@H](Cc1ccc(O)c(O)c1)C(N)=O)[C@@H](C)CC [IIZ(KDo)2] (Ac-II[Cha]K[Dopa]K[Dopa]-NH2) | good viability | did not affect cell growth | consistently comparable to 2D cultures | metabolically active for up to day 21 | biocompatible |  |  |  |  |  |
|  | CC[C@H](C)[C@H](NC(C)=O)C(=O)N[C@H](C(=O)N[C@@H](CC1CCCCC1)C(=O)N[C@@H](CCCCN)C(=O)N[C@@H](Cc1ccc(O)c(O)c1)C(=O)N[C@@H](CCCCN)C(=O)N[C@@H](Cc1ccc(O)c(O)c1)C(=O)N[C@@H](CCCCN)C(=O)N[C@@H](Cc1ccc(O)c(O)c1)C(N)=O)[C@@H](C)CC [IIZ(KDo)3] (Ac-II[Cha]K[Dopa]K[Dopa]K[Dopa]-NH2) | toxic | reduced cell growth |  |  | not biocompatible |  |  |  |  |  |
| 20 | Ac-II[Cha]K-NH2 [IIZK, reference compound] |  |  |  |  |  | 5.681 | 100.4 | 11.5885 | 75.66 |  |
|  | Ac-Ile-Ile-Phe-Lys-NH2 (Ac-IIFK-NH2) [alternative peptide used as control, reference compound] |  |  |  |  |  | 8.358 | 13.217 | 12.13 | 89.77 | about 80% |
